Data: ChEMBL document CHEMBL6153033, “Design and synthesis of N-(3-cyanothiophen-2-yl)-2-phenoxyacetamide-based α-glucosidase inhibitors” (Bioorg Med Chem Lett, 2025)
≈ marks a conversion by molar mass, not a printed value.

Legend:
Alpha glucosidase [1] = target: T1, Alpha glucosidase (Homo sapiens, UniProt O43451+P10253+P14410+Q2M2H8); assay: Inhibition of alpha-glucosidase (unknown origin); format: protein assay
Alpha glucosidase [2] = target: T1, Alpha glucosidase; assay: Inhibition of alpha-glucosidase (unknown origin) assessed as inhibition rate at 100 uM relative to control; format: protein assay
[3] = Inhibition of alpha-amylase (unknown origin); design: species or system Homo sapiens
[4] = Stability in mouse plasma assessed as compound remaining parent compound after 6 hrs; format: ADME, cell-free; details: read-out: Stability
[5] = Stability in mouse plasma assessed as compound remaining parent compound after 0.5 hrs; format: ADME, cell-free; details: read-out: Stability
[6] = Selectivity index, ratio of IC50 for alpha-amylase (unknown origin) to IC50 for alpha-glucosidase (unknown origin)
[7] = Aqueous solubility of compound; format: physicochemical
[8] = Stability in mouse plasma assessed as compound remaining parent compound after 1 hrs; format: ADME, cell-free; details: read-out: Stability
[9] = Cytotoxicity against human LO2 cells by MTT assay; format: toxicity, cell-based, L02
Alpha glucosidase [10] = target: T1, Alpha glucosidase; assay: Binding affinity to alpha-glucosidase (unknown origin) assessed as inhibition constant; format: protein assay
Alpha glucosidase [11] = target: T1, Alpha glucosidase; assay: Binding affinity to alpha-glucosidase (unknown origin) assessed as decreased in Vmax using p-nitrophenyl glucopyranoside as substrate at 1 to 16 uM by Lineweaver-Burk plot analysis; format: protein assay; details: dose 1-16 µM

Q: What does the source list for `COc1cc(C=O)ccc1OCC(=O)Nc1sc2c(c1C#N)CCC2`?
A: IC50 (Alpha glucosidase [1]): 35.6 µM; inhibition (Alpha glucosidase [2]): 70.4%

Q: What does the source list for `COc1ccc(C=O)cc1OCC(=O)Nc1sc2c(c1C#N)CCC(C)C2` (centres undefined)?
A: IC50 (Alpha glucosidase [1]): 4.69 µM; IC50 [3]: 38.5 µM; remaining at 6 h [4]: 0%; remaining at 0.5 h [5]: 76.5%; Selectivity Index [6]: 8.19; solubility [7]: 25 µM (≈ 9.61 µg/mL); remaining at 1 h [8]: 35%; CC50 [9]: > 200 µM

Q: For `COc1ccc(C=O)c(OCC(=O)Nc2sc3c(c2C#N)CCC(C)C3)c1` (centres undefined), which IC50 (Alpha glucosidase [1]) is on record?
A: 7.17 µM

Q: What about the IC50 [3] of the same compound?
A: 65.7 µM

Q: What about the remaining at 6 h [4] of the same compound?
A: 30%

Q: What about the remaining at 0.5 h [5] of the same compound?
A: 57%

Q: What about the Selectivity Index [6] of the same compound?
A: 9.2

Q: And the solubility [7]?
A: 22.2 µM (≈ 8.53 µg/mL)

Q: And the remaining at 1 h [8]?
A: 42.7%

Q: What about the CC50 [9] of the same compound?
A: > 200 µM

Q: Which IC50 (Alpha glucosidase [1]) does the source give for `CC1CCc2c(sc(NC(=O)COc3cccc(C=O)c3)c2C#N)C1` (centres undefined) here?
A: 20.85 µM

Q: Which IC50 (Alpha glucosidase [1]) does the source give for `Cc1cccc(C=O)c1OCC(=O)Nc1sc2c(c1C#N)CCC(C)C2` (centres undefined) here?
A: > 50 µM

Q: Which IC50 (Alpha glucosidase [1]) does the source give for `CC1CCc2c(sc(NC(=O)COc3ccccc3C=O)c2C#N)C1` (centres undefined) here?
A: > 50 µM

Q: For `COc1cc(C=O)ccc1OCC(=O)Nc1sc2c(c1C#N)CCC1(C2)OCCO1`, which inhibition (Alpha glucosidase [2]) is on record?
A: 15.7%

Q: Which IC50 (Alpha glucosidase [1]) does the source give for `CC1CCc2c(sc(NC(=O)COc3ccc(C=O)cc3)c2C#N)C1` (centres undefined) here?
A: 24.28 µM

Q: With `COc1cc(C=O)ccc1OCC(=O)Nc1sc2c(c1C#N)CCCCC2` as the compound, how does the inhibition (Alpha glucosidase [2]) read?
A: 7.31%

Q: With `Cc1cc(C=O)ccc1OCC(=O)Nc1sc2c(c1C#N)CCC(C)C2` (centres undefined) as the compound, how does the IC50 (Alpha glucosidase [1]) read?
A: 35.55 µM

Q: With `COc1ccc(CNC(=O)Nc2sc3c(c2C#N)CCCC3)c(OC)c1` as the compound, how does the IC50 (Alpha glucosidase [1]) read?
A: 15.32 µM

Q: What about the remaining at 6 h [4] of the same compound?
A: 28.5%

Q: And the remaining at 0.5 h [5]?
A: 78%

Q: And the inhibition (Alpha glucosidase [2])?
A: 73.9%

Q: What about the solubility [7] of the same compound?
A: 28.6 µM (≈ 10.6 µg/mL)

Q: And the remaining at 1 h [8]?
A: 51.4%

Q: With `COc1cc(C=O)ccc1OCC(=O)Nc1sc2c(c1C#N)CCOC2` as the compound, how does the IC50 (Alpha glucosidase [1]) read?
A: 32.38 µM

Q: And the inhibition (Alpha glucosidase [2])?
A: 67.3%

Q: For `COc1cc(C=O)ccc1OCC(=O)Nc1sc2c(c1C#N)CCC(O)C2` (centres undefined), which IC50 (Alpha glucosidase [1]) is on record?
A: 10.35 µM

Q: What about the inhibition (Alpha glucosidase [2]) of the same compound?
A: 86.5%

Q: Which IC50 (Alpha glucosidase [1]) does the source give for `COc1cc(C=O)cc(OCC(=O)Nc2sc3c(c2C#N)CCC(C)C3)c1OC` (racemic) here?
A: 2.11 µM

Q: And the Ki (Alpha glucosidase [10])?
A: 5.56 µM

Q: What about the IC50 [3] of the same compound?
A: 36.9 µM

Q: And the Activity (Alpha glucosidase [11])?
A: Dose-dependent-effect

Q: And the remaining at 6 h [4]?
A: 50.6%

Q: And the remaining at 0.5 h [5]?
A: 84.3%

Q: What about the Selectivity Index [6] of the same compound?
A: 17.5

Q: What about the solubility [7] of the same compound?
A: 25 µM (≈ 10.4 µg/mL)

Q: And the remaining at 1 h [8]?
A: 61.3%

Q: And the CC50 [9]?
A: > 200 µM

Q: What does the source list for `CCOC(=O)C1CCc2sc(NC(=O)COc3ccc(C=O)cc3OC)c(C#N)c21` (centres undefined)?
A: IC50 (Alpha glucosidase [1]): 69.78 µM; inhibition (Alpha glucosidase [2]): 61.5%

Q: Which results are given for `COc1cc(C=O)ccc1OCC(=O)Nc1sc2c(c1C#N)CCCC2`?
A: IC50 (Alpha glucosidase [1]): 14.09 µM; inhibition (Alpha glucosidase [2]): 70.4%

Q: Which IC50 [3] does the source give for `C[C@H]1O[C@H](O[C@H]2[C@H](O)[C@@H](O)[C@@H](O[C@H]3[C@H](O)[C@@H](O)C(O)O[C@@H]3CO)O[C@@H]2CO)[C@H](O)[C@@H](O)[C@@H]1N[C@H]1C=C(CO)[C@@H](O)[C@H](O)[C@H]1O` (some centres undefined) [ACARBOSE] here?
A: 70 µM

Q: What about the CC50 [9] of the same compound?
A: > 200 µM

Q: With `Cc1ccc(C=O)c(OCC(=O)Nc2sc3c(c2C#N)CCC(C)C3)c1` (centres undefined) as the compound, how does the IC50 (Alpha glucosidase [1]) read?
A: > 50 µM

Q: With `COc1cc(C=O)ccc1OCC(=O)Nc1sc2c(c1C#N)CCCC2=O` as the compound, how does the inhibition (Alpha glucosidase [2]) read?
A: 45.6%

Q: For `COc1cc(C=O)ccc1OCC(=O)Nc1sc2c(c1C#N)CCC(C)C2` (centres undefined), which IC50 (Alpha glucosidase [1]) is on record?
A: 7.42 µM

Q: And the IC50 [3]?
A: 51.7 µM

Q: What about the remaining at 6 h [4] of the same compound?
A: 33.6%

Q: And the remaining at 0.5 h [5]?
A: 83.3%

Q: And the Selectivity Index [6]?
A: 6.97

Q: What about the inhibition (Alpha glucosidase [2]) of the same compound?
A: 93.4%

Q: What about the solubility [7] of the same compound?
A: 28.6 µM (≈ 11 µg/mL)

Q: And the remaining at 1 h [8]?
A: 72.9%

Q: And the CC50 [9]?
A: > 200 µM

Q: For `COC(=O)C1CCCc2sc(NC(=O)COc3ccc(C=O)cc3OC)c(C#N)c21` (centres undefined), which IC50 (Alpha glucosidase [1]) is on record?
A: 60.25 µM

Q: And the inhibition (Alpha glucosidase [2])?
A: 69.8%
